# Measurements from US8927562B2, “Fused tricyclic inhibitors of mammalian target of rapamycin” (Merck Sharp & Dohme Corp., priority 2010, dated 2015).
# Biological target: mTOR enzyme (Homo sapiens, UniProt P42345)
# Experiment: mTOR Kinase Assay
# Format: biochemical
# Conditions: 5 μM ATP, 0.1 μM GSTS6K substrate
# Method: The mTOR assay buffer contains 10 mM hepes (pH 7.4), 50 mM NaCl, 100 μg/ml BSA, 50 mM B-glycerophosphate, 10 mM MnCl2 and 0.5 mM DTT. 20 ng of mTOR enzyme is preincubated with the compound for 10 minutes. 5 μM ATP and 0.1 μM GSTS6K is added. The reaction is incubated for one hour at 30° C. Anti phospho p70S6K (about 1.7 ng/well) and anti GSTXL665 (1:1 Ratio with the substrate GSTS6K) are added after incubating. The plates are read at least 2 hours after adding the anti phospho p70S6K and the anti GSTXL665.
# Dose-response curves were plotted from inhibition data generated, each in duplicate, from 8 point serial dilutions of inhibitory compounds. Concentration of compound was plotted against % kinase activity, calculated by CPM of treated samples divided by CPM of untreated samples. To generate IC50 values, the dose-response curves were then fitted to a standard sigmoidal curve and IC50 values were derived by nonlinear regression analysis.
row,SMILES,IC50
1,"C[C@@H](O)C(=O)N1Cc2nc3c(-c4ccc(-c5ccccc5)nc4)cnn3c(N)c2C1 [Example 1, (R)-1-(8-amino-3-(6-phenylpyridin-3-yl)-5H-pyrazolo[1,5-a]pyrrolo[3,4-d]pyrimidin-6(7H)-yl)-2-hydroxypropan-1-one]",10 to 100 nM
2,"Nc1c2c(nc3c(-c4ccc(-c5ccccc5)nc4)cnn13)CS(=O)(=O)C2 [Example 2, 3-(6-phenylpyridin-3-yl)-5,7-dihydropyrazolo[1,5-a]6,6-dioxidothieno[3,4-d]pyrimidin-8-amine]",10 to 100 nM
3,"Nc1c2c(nc3c(-c4ccc(-c5ccccc5)nc4)cnn13)C(NC1CCOCC1)CC2 (stereo not drawn) [Example 3, 3-(6-phenylpyridin-3-yl)-N5-(tetrahydro-2H-pyran-4-yl)-6,7-dihydro-5H-cyclopenta[d]pyrazolo[1,5-a]pyrimidine-5,8-diamine]",> 100 nM
4,"Cc1cn(C2CCN(C(=O)CO)CC2)c2nc3c(-c4cnc5ccc(F)cc5c4)cnn3c(N)c12 [Example 4, 1-(4-(8-amino-3-(6-fluoroquinolin-3-yl)-7-methyl-5H-pyrazolo[1,5-a]pyrrolo[2,3-d]pyrimidin-5-yl)piperidin-1-yl)-2-hydroxyethanone]",< 10 nM
5,Cc1cn(C2CCN(C(=O)c3nnc[nH]3)CC2)c2nc3c(-c4cnc5ccc(F)cc5c4)cnn3c(N)c12 [Example 5],< 10 nM
6,Cc1cn(C2CCN(C(=O)CO)CC2)c2nc3c(-c4ccc(-c5ccn(C)n5)nc4)cnn3c(N)c12 [Example 11],10 to 100 nM
7,Cc1cn(C2CCN(C(=O)CO)CC2)c2nc3c(-c4cnn(-c5ccccc5)c4)cnn3c(N)c12 [Example 13],< 10 nM
8,Cc1cn(C2CCN(C(=O)CO)CC2)c2nc3c(-c4ccc(-c5ncc[nH]5)nc4)cnn3c(N)c12 [Example 15],< 10 nM

# Other lines, results leading:
row,IC50,SMILES
1,10 to 100 nM,Cc1cn(C2CCN(C(=O)c3nnc[nH]3)CC2)c2nc3c(-c4ccc(-c5ccccc5)nc4)cnn3c(N)c12 [Example 6]
2,10 to 100 nM,Cc1cn(C2CCN(C(=O)c3nnc(N)[nH]3)CC2)c2nc3c(-c4ccc(-c5ccccc5)nc4)cnn3c(N)c12 [Example 7]
3,10 to 100 nM,Cc1cn(C2CCN(C(=O)c3cc(N)n[nH]3)CC2)c2nc3c(-c4ccc(-c5ccccc5)nc4)cnn3c(N)c12 [Example 8]
4,< 10 nM,Cc1cn(C2CCN(C(=O)CO)CC2)c2nc3c(-c4ccc(-c5ccccc5)nc4)cnn3c(N)c12 [Example 9]
5,< 10 nM,Cc1cn(C2CCN(C(=O)c3nnc[nH]3)CC2)c2nc3c(-c4ccc(-c5ccn(C)n5)nc4)cnn3c(N)c12 [Example 10]
6,10 to 100 nM,Cc1cn(C2CCN(C(=O)c3nnc[nH]3)CC2)c2nc3c(-c4cnn(-c5ccccc5)c4)cnn3c(N)c12 [Example 12]
7,< 10 nM,Cc1cn(C2CCN(C(=O)c3nnc[nH]3)CC2)c2nc3c(-c4ccc(-c5ncc[nH]5)nc4)cnn3c(N)c12 [Example 14]
